# Measured values: PMC5951806, “Rapid labelling and covalent inhibition of intracellular native proteins using ligand-directed N-acyl-N-alkyl sulfonamide” (Nature Communications, 2018)
# Experiments:
# Assay in all cases: TMT LC-MSMS of 11-labelled proteins
# Assay type in all cases: cell-based
# [1] = target: 60 kDa heat shock protein, mitochondrial (HSPD1) (Homo sapiens, UniProt P10809)
# [2] = target: Tubulin alpha-1B chain (TUBA1B) (Homo sapiens, UniProt P68363)
# [3] = target: T1, Isoform 1 of Voltage-dependent anion-selective channel protein 2 (VDAC2) (Homo sapiens, UniProt P45880)
# T1 sequence (P45880 12-294 limits assumed): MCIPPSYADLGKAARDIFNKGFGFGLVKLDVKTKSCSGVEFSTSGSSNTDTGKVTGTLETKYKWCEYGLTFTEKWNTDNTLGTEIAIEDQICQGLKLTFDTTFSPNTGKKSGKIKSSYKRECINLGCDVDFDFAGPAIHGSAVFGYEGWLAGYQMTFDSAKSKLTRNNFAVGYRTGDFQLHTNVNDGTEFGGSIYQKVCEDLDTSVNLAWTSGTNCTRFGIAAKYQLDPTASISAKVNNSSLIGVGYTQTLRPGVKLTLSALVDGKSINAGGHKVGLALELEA
# [4] = sheet Merged, SKBR3 cells, 11 0.5 µM 3 h vs DMSO
# [5] = sheet Merged, SKBR3 cells, 11 0.5 µM 3 h vs with PU-H71 10 µM
# [6] = sheet Exp1, SKBR3 cells, 11 0.5 µM 3 h vs DMSO
# [7] = sheet Exp1, SKBR3 cells, 11 0.5 µM 3 h vs with PU-H71 10 µM
# Chain of Tubulin alpha-1B chain (TUBA1B) (P68363 whole entry, canonical isoform): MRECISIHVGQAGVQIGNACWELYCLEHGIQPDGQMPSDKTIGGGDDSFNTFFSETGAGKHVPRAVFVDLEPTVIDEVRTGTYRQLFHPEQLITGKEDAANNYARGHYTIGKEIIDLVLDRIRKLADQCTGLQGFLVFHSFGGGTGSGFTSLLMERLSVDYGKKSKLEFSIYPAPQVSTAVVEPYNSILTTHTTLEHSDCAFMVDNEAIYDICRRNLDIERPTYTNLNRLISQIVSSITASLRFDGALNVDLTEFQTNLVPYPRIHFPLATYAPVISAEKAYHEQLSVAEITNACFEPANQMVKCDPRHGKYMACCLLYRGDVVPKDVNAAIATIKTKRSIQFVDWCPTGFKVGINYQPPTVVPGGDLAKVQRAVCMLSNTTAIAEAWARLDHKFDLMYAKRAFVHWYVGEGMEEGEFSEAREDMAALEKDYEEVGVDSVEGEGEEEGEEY
# Chain of Tubulin alpha-1B chain (TUBA1B) (P07437 whole entry partner, canonical isoform): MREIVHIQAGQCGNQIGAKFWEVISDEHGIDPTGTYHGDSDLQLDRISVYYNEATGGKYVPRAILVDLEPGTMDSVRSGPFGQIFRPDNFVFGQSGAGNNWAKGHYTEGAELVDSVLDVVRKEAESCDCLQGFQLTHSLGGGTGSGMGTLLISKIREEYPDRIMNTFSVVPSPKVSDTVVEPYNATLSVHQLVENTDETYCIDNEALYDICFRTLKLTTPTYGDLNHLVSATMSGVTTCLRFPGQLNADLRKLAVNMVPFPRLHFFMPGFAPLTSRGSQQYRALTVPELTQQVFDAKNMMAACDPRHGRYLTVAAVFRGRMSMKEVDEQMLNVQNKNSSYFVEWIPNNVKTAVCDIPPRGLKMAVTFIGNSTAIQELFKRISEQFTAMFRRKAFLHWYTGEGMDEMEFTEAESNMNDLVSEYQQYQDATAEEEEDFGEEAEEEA
# Chain of 60 kDa heat shock protein, mitochondrial (HSPD1) (P10809 27-573): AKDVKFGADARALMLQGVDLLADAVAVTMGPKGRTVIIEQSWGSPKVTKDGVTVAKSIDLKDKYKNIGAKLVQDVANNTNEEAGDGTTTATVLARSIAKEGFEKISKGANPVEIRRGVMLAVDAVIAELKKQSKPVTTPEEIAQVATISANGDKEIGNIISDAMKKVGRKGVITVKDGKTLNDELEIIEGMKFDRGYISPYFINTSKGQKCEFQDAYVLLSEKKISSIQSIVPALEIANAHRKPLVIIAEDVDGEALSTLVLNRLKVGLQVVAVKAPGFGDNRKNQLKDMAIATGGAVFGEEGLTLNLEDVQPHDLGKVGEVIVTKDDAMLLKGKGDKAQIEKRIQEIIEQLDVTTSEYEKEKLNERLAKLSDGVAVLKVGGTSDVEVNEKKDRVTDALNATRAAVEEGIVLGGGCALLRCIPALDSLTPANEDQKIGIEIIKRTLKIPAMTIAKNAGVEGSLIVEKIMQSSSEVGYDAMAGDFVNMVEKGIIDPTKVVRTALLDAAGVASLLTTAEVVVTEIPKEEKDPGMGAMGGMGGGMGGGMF
smiles,measurement,setting,value
CC(=O)Oc1ccc2c(c1)Oc1cc(OC(C)=O)ccc1C21OC(=O)c2cc(C(=O)NCCOCCOCCNC(=O)CCCC(=O)N(CC#N)S(=O)(=O)c3ccc(C(=O)NCCCn4c(Sc5cc6c(cc5I)OCO6)nc5c(N)ncnc54)cc3)ccc21 [compound 11],Abundance Ratio: (11) / (11 with PU-H71),"[1]; Exp3, HSPD1",0.857
same,Abundance Ratio: (11) / (DMSO),"[1]; Exp3, HSPD1",2.057
same,Abundances (Grouped): 11,"[1]; Exp3, HSPD1",57.6
same,Abundances (Grouped): 11 with PU-H71,"[1]; Exp3, HSPD1",67.2
same,Abundance Ratio: (11) / (11 with PU-H71),"[1]; sheet Exp2, HSPD1",1.035
same,Abundance Ratio: (11) / (DMSO),"[1]; sheet Exp2, HSPD1",2.527
same,Abundances (Grouped): 11,"[1]; sheet Exp2, HSPD1",61.4
same,Abundances (Grouped): 11 with PU-H71,"[1]; sheet Exp2, HSPD1",59.3
same,Abundance Ratio: (11) / (DMSO),[1]; [4],2.28
same,Abundance Ratio: (11) / (11 with PU-H71),[1]; [5],0.942
same,Abundance Ratio: (11) / (11 with PU-H71),"[2]; Exp3, TUBA1B",0.849
same,Abundance Ratio: (11) / (DMSO),"[2]; Exp3, TUBA1B",4.864
same,Abundances (Grouped): 11,"[2]; Exp3, TUBA1B",236.9
same,Abundances (Grouped): 11 with PU-H71,"[2]; Exp3, TUBA1B",279
same,Abundance Ratio: (11) / (DMSO),[2]; [6],6.965
same,Abundance Ratio: (11) / (11 with PU-H71),[2]; [7],0.862
same,Abundance Ratio: (11) / (11 with PU-H71),"[2]; sheet Exp2, TUBA1B",0.827
same,Abundance Ratio: (11) / (DMSO),"[2]; sheet Exp2, TUBA1B",7.231
same,Abundances (Grouped): 11,"[2]; sheet Exp2, TUBA1B",197.4
same,Abundances (Grouped): 11 with PU-H71,"[2]; sheet Exp2, TUBA1B",238.8
same,Abundance Ratio: (11) / (DMSO),[2]; [4],6.965
same,Abundance Ratio: (11) / (11 with PU-H71),[2]; [5],0.862
same,Abundance Ratio: (11) / (11 with PU-H71),"[3]; Exp3, VDAC2",0.617
same,Abundance Ratio: (11) / (DMSO),"[3]; Exp3, VDAC2",3.942
same,Abundances (Grouped): 11,"[3]; Exp3, VDAC2",149
same,Abundances (Grouped): 11 with PU-H71,"[3]; Exp3, VDAC2, with PU-H71",241.6
same,Abundance Ratio: (11) / (DMSO),[3]; [6],2.647
same,Abundance Ratio: (11) / (11 with PU-H71),[3]; [7],0.676
same,Abundance Ratio: (11) / (DMSO),[3]; [4],2.786
same,Abundance Ratio: (11) / (11 with PU-H71),[3]; [5],0.688
